From PubChem BioAssay AID1159559 (GlaxoSmithKline (GSK), 2015) come the findings set out here.

For the assay, the system named is T. cruzi Tulahuen in NIH-3T3, beta-gal fluorescence, 4 d. As to the kind of experiment: anti-Chagas amastigote proliferation inhibitors – cell-based (AID 1159559).

Active and inactive are the calls of the source.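 The calls were made as follows: active = compounds whose IC50 against parasite growth in infected mouse cells is below 50000 nM; inactive = the rest.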 A value given as a limit tells only on which side of the number the result lay.

For the compound `COc1cccc2sc(CN(C)C(=O)C3CNCCN3c3ccc(F)cc3)c(C)c12` (configuration not stated), the IC50 is 400 nM.
Consider `Cc1cc(C#N)c([N+](=O)[O-])cc1Br`, for which the IC50 was 200 nM.
For the compound `CNc1nc(C)nc(N2CCc3cc(C(=O)NCc4ccc(-c5nccn5C)cc4Cl)ccc32)n1`, the IC50 is 5000 nM.
The figure for `Clc1cc(Br)ccc1OCCCCn1ccnc1` is 630 nM; for `c1ccc(-c2nc(NCc3ccco3)c3ccccc3n2)nc1` it is 6300 nM.
As to `CC(Cn1ccnc1)NC(=O)C1CC1c1cccc(Cl)c1Cl` (configuration not stated), the IC50 is 130 nM.
On to `COc1ccc(S(=O)(=O)NC(C)C)cc1Nc1ncc(-c2cccc(F)c2)cn1`, for which the IC50 was 630 nM.
Consider `O=C(Nc1ccc(-c2nc3ccccc3c(=O)[nH]2)cc1)c1cccs1`, for which the IC50 is 3200 nM.
Consider `O=C(NCCCn1cnc2ccccc21)c1ccc(NC(=O)c2ccco2)cc1`, for which the half-inhibitory concentration (IC50) is 4000 nM.
As to `Cc1ccnc(NS(=O)(=O)c2ccc(NC(=O)c3ccc([N+](=O)[O-])s3)cc2)n1`, the IC50 is 2000 nM.
Regarding `CS(=O)(=O)c1ccc(Nc2nccc(-c3cnn4ncccc34)n2)cc1`, the 50% inhibitory concentration (IC50) was 2000 nM.
Turning to `COc1ccc(C(C)(C)C)cc1S(=O)(=O)n1ccnc1`, the half-maximal inhibitory concentration (IC50) was 130 nM.
For the compound `CCCCN(C(=O)c1ccc(NC(=O)C(C)C)cc1)c1ccccc1`, the concentration for half-maximal inhibition (IC50) was 20000 nM.
Regarding `COc1ccc2nc(N(Cc3cccnc3)C(=O)C3CCC3)sc2c1`, the IC50 is 130 nM.
For the compound `CCN(CC)c1nc(Nc2ccncc2)nc2ccccc12`, the IC50 was 130 nM.
Take `NC(N)=Nc1nc(-c2ccc(NC(N)=NCCN3CCCC3)cc2)cs1`: the IC50 was > 50000 nM (inactive).
`O=C(CSc1ccc(F)cc1)N[C@@H](Cc1cnc[nH]1)C(=O)NCCc1ccccc1`: the half-maximal inhibitory concentration (IC50) is 400 nM.
The figure for `Nc1nc(-c2ccccn2)nc(-n2nc(-c3ccccc3)cc2N)n1` is 500 nM; for `CCN(CC)S(=O)(=O)c1ccc(Cn2nc(C(=O)Nc3ccncn3)c3ccccc32)cc1` it is 320 nM.
As for `Cc1cc(=O)n2nc(Oc3ccc(C#N)cc3Cl)sc2n1`, the IC50 is 16000 nM.
As for `O=C(CC1(O)C(=O)N(Cc2ccccc2)c2ccc(Br)cc21)c1cccnc1` (configuration not stated), the 50% inhibitory concentration (IC50) is 5000 nM.
In the case of `Cc1occc1C(=O)Nc1ccccc1C(=O)Nc1nccs1`, the IC50 is > 50000 nM (inactive).
With `c1cc(-c2ncc(-c3ccn[nH]3)s2)ccn1`, the IC50 is 160 nM.
With `O=C(NCC(c1cccs1)N1CCOCC1)c1ccc([N+](=O)[O-])o1` (configuration not stated), the IC50 is 3200 nM.
As to `CN(Cc1nc2ccc(C(=O)NCC3CCCCC3)cc2[nH]1)C1CCCc2cccnc21` (configuration not stated), the IC50 is 500 nM.
As for `O=C(Nc1cccc(Cl)c1)N1CCCCC1c1cccnc1` (configuration not stated), the IC50 is 160 nM.
Regarding `O=C(Nc1ccc(S(=O)(=O)N2CCCC2)cc1)c1ccc([N+](=O)[O-])s1`, the IC50 was 200 nM.
For `O=[N+]([O-])c1ccc(C2=CC(c3ccccc3)=NCCN2)cc1`, the IC50 is 500 nM.
For `O=C(Nc1ccc(C(=O)N2CCCC2c2ccc3c(c2)OCCCO3)cc1)c1ccco1` (configuration not stated) the value was 500 nM; for `c1ccc2c(CCOc3nccnc3-c3ccncc3)c[nH]c2c1`, 130 nM; for `COc1ccc(C2CC(c3ccc(NS(C)(=O)=O)cc3)=NN2C(=O)c2cccs2)cc1OC` (configuration not stated), 25000 nM.
For `CC(=O)Nc1ccc(-c2csc(NC(=O)c3ccc([N+](=O)[O-])s3)n2)cc1`, the IC50 is 130 nM.
As to `c1cncc(CN(Cc2ccco2)Cc2cn[nH]c2-c2cccs2)c1`, the half-inhibitory concentration (IC50) was 20 nM.
Turning to `CCOc1ccc(CC(=O)N2c3ccccc3CC2C(=O)NC)cc1` (configuration not stated), the IC50 is > 50000 nM (inactive).
In the case of `O=C(Nc1ccc(Br)cn1)c1ccc(Cn2cnc([N+](=O)[O-])n2)cc1`, the IC50 is 160 nM.
On to `O=C(COc1ccccc1)Nc1ccccc1C(=O)Nc1nccs1`, for which the IC50 is > 50000 nM (inactive).
With `O=C1CCCCCC1(Cc1cnc[nH]1)c1ccc(Cl)cc1Cl` (configuration not stated), the 50% inhibitory concentration (IC50) is 250 nM.
With `COC(=O)c1ccc(-c2cnc3ccc(NCc4ccccn4)nn23)cc1`, the IC50 is 7900 nM.
For `CC(c1cc(Cl)cc(Cl)c1)N(C)c1ncc2c(N)nc(N)nc2n1` (configuration not stated) the value was 63 nM; for `O=C(NCCc1csc(-c2cccc(F)c2)n1)c1ccco1`, 1600 nM.
Consider `Cn1nccc1NC(=O)Cn1ccc(-c2ccncc2)n1`, for which the IC50 was > 50000 nM (inactive).
Consider `CNC(=O)Oc1ccc(C(=O)NCc2ccccc2)cc1OC(=O)NC`, for which the IC50 was 32000 nM.
With `COc1ccc2ncc(Cl)c(CCN3CC[C@@H](NCc4cc5c(cn4)OCS5)[C@H](O)C3)c2n1`, the half-maximal inhibitory concentration (IC50) is 130 nM.
As to `Cn1nc([N+](=O)[O-])nc1N1CCCCC1`, the IC50 was 1300 nM.
In the case of `CCOc1ccccc1C(=O)Nc1nnc(-c2ccc3c(c2)OCO3)s1`, the concentration for half-maximal inhibition (IC50) was 630 nM.
In the case of `COc1ccc(C2CC(c3ccccc3Cl)=NN2C(=O)CNC(=O)C2CCC2)cc1` (configuration not stated), the half-inhibitory concentration (IC50) is 2500 nM.
For `N#Cc1cccc(CN2CCC(N(Cc3cccnc3)C(=O)c3cc(F)c(F)cc3F)CC2)c1` the value was 400 nM; for `O=c1cc(NCCCNCc2cc(C(F)(F)F)cs2)[nH]c2ccccc12`, 7900 nM.
For the compound `CCN(CC)c1ncc(C(=O)c2ccc([N+](=O)[O-])o2)s1`, the IC50 is 4000 nM.
Turning to `O=[N+]([O-])c1cccc(Nc2cncc(-c3ccccc3CO)c2)c1`, the concentration for half-maximal inhibition (IC50) was 320 nM.
As for `CC(C)(C)CC(=O)NCCc1csc(-c2ccc(F)cc2)n1`, the IC50 is 1300 nM.
Regarding `CC(C)CC(=O)NC(c1cccs1)c1ccc2cccnc2c1O` (configuration not stated), the IC50 was 1600 nM.
Turning to `COc1cccc(-c2c(C)nn(-c3nc(N)nc(-c4ccccn4)n3)c2N)c1`, the IC50 is 2500 nM.
In the case of `Cc1cc2cc(CNc3ccc4c(c3)OCO4)c(=O)n(CCO)c2cc1C`, the half-maximal inhibitory concentration (IC50) was 630 nM.
Regarding `COc1ccc(OC)c(S(=O)(=O)N(Cc2c(F)cccc2F)[C@@H]2CCN(C#N)C2)c1`, the concentration for half-maximal inhibition (IC50) is 6300 nM.
Take `O=C(CN(Cc1ccccn1)Cc1ccccn1)NC1Cc2ccccc2C1`: the half-maximal inhibitory concentration (IC50) was 5000 nM.
In the case of `O=C1CSC(c2cccnc2)N1c1ccc(Cl)cc1Cl` (configuration not stated), the IC50 was 63 nM.
For `O=C(Nc1nc2cc(Cl)ccc2o1)c1cccc(Cl)c1` the value was 790 nM.
For the compound `CN1C(=O)c2ccccc2Sc2ccc(NC(=O)NCc3ccco3)cc21`, the concentration for half-maximal inhibition (IC50) is 10000 nM.
Consider `CS(=O)(=O)c1ccccc1C(=O)N(Cc1ccccc1)c1ccccc1`, for which the IC50 was 50000 nM.
`Cc1nc(N2CCC(C(=O)N3CCC(O)(c4cccnc4)CC3)CC2)nc2ccc(C(C)C)cc12`: the IC50 is 1600 nM.
Consider `Cn1c(CC(=O)NNC(=O)c2ccc3ccccc3n2)nc2ccccc21`, for which the 50% inhibitory concentration (IC50) is 3200 nM.
For `NCc1csc(Nc2cc(Oc3ccccc3)ncn2)n1`, the IC50 was 32000 nM.
Regarding `CNc1c(C(N)=O)c(-c2ccc3scnc3c2)nn1CC(F)(F)F`, the half-maximal inhibitory concentration (IC50) was 130 nM.
Turning to `COc1ccc2ncc(=O)n(CCN3CC[C@H](NCc4ncc(Cl)c5[nH]ncc45)[C@H](O)C3)c2n1`, the concentration for half-maximal inhibition (IC50) was 4000 nM.
Turning to `O=C(CCCn1cnc([N+](=O)[O-])n1)Nc1cccc(Cl)c1`, the IC50 is 200 nM.
For `COc1ccc(S(=O)(=O)Nc2ccccc2OC)cc1NC(=O)CCCc1c[nH]c2ccccc12` the value was 1600 nM; for `Cc1[nH]nc(Nc2ccnc3[nH]ccc23)c1C`, 4000 nM; for `CCCCc1cc(Nc2cc(C3CCC3)[nH]n2)nc(N2CCC2C(N)=O)n1` (configuration not stated), 3200 nM.
Consider `CCCCNc1nccc(-c2c(-c3ccc(F)cc3)nn3c(N4CCOCC4)cccc23)n1`, for which the 50% inhibitory concentration (IC50) was 400 nM.
Turning to `CN(C)c1ccc(-c2cc3nccnc3c(OC[C@H]3CCCNC3)n2)cn1`, the IC50 was 1600 nM.
Regarding `Cc1cc(NC(=O)c2ccc([N+](=O)[O-])s2)ccc1Br`, the half-inhibitory concentration (IC50) was 250 nM.
The figure for `COc1ccc(C(=O)Nc2cc(C(F)(F)F)ccc2N2CCOCC2)c(OC)c1` is 1000 nM; for `COc1cccc(S(=O)(=O)Nc2ccc3c(c2)CC(N2CCC(NC(=O)C4CC4)CC2)C3)c1` (configuration not stated) it is 40000 nM; for `O=C(Nc1nc(-c2ccc(S(=O)(=O)N3CCOCC3)cc2)cs1)c1ccc([N+](=O)[O-])cc1` it is 1000 nM.
The figure for `COc1ccc(C2C3CCCCC3(O)CCN2CC(=O)Nc2ccc(Cl)cc2Cl)cc1` (configuration not stated) is 2500 nM; for `CN(CC1CCCO1)S(=O)(=O)c1ccc(C(=O)Nc2nc(-c3ccccn3)cs2)cc1` (configuration not stated) it is 1600 nM; for `COc1cnc2ccc(=O)n(CCN3CCC(NC(=O)Cc4ccc(Cl)c(Cl)c4)CC3)c2c1` it is 320 nM.
The figure for `Cc1cc(C)n(-c2nc(NC(C)(C)C)nc(N3CCOCC3)n2)n1` is 5000 nM; for `Cc1c(C#N)c([N+](=O)[O-])nn1Cc1cccc(Cl)c1Cl` it is 200 nM; for `CN(C)c1ncc(-c2cncn2CCOc2ccc(Cl)cc2)cn1` it is 200 nM.
For `COc1ccc(-c2nc3ncccc3o2)cc1NC(=O)c1cccs1`, the half-maximal inhibitory concentration (IC50) is 2000 nM.
`Cc1ccc(C)c(-n2nnnc2Sc2nc([N+](=O)[O-])nn2C)c1`: the half-inhibitory concentration (IC50) is 500 nM.
On to `N#Cc1cc([N+](=O)[O-])ccc1NC1CCCCCC1`, for which the IC50 is 2500 nM.
Take `OCC1CCCCN1c1cc(-c2ccccn2)nc(Nc2ccccc2)n1` (configuration not stated): the half-maximal inhibitory concentration (IC50) was 790 nM.
Take `COc1ccc(CN2CCCCC2c2nc(-c3cccnc3)no2)cc1` (configuration not stated): the IC50 was 790 nM.
For the compound `COc1cccc(CN(C)Cc2nc(N)c3c(C)c(C)sc3n2)c1`, the IC50 is 6300 nM.
In the case of `NS(=O)(=O)c1ccc(Nc2nccc(-c3cnn4ncccc34)n2)cc1`, the 50% inhibitory concentration (IC50) is 2500 nM.
Turning to `Cc1cc(C)cc(NS(=O)(=O)c2cc(-c3cc(C)[nH]n3)ccc2C)c1`, the IC50 is 1000 nM.
For `O=C(CCCNC(=O)c1ccc(Cl)cc1)Nc1nc(-c2ccccn2)cs1`, the half-inhibitory concentration (IC50) is 6300 nM.
For `CC(=O)Nc1ccc(-c2noc(CC3CCCN(Cc4cccc(F)c4C)C3)n2)cc1` (configuration not stated) the value was 1000 nM; for `CC(C)(C)C(O)(CCc1ccc(Cl)cc1)Cn1cncn1` (configuration not stated), 130 nM; for `O=C(CSc1nnc(-c2ccc3c(c2)OCO3)o1)N(Cc1ccco1)CC(F)(F)F`, 10000 nM.
Regarding `CS(=O)(=O)N1CCC(Nc2ncc(Br)c(Nc3cccc(F)c3C(N)=O)n2)CC1`, the concentration for half-maximal inhibition (IC50) was 320 nM.
With `C=CCn1nc([N+](=O)[O-])nc1Oc1ccc(Cl)cc1Cl`, the IC50 is 250 nM.
`Nc1nonc1-c1nc2cncc(C(=O)N3CC[C@H](N)C3)c2n1CC1CC1`: the IC50 is > 50000 nM (inactive).
As for `Cc1nc2c(-c3nc(-c4ccc(N)cc4)n[nH]3)cccn2c1C`, the 50% inhibitory concentration (IC50) was 6300 nM.
